Experimental data reported in PMC9951552 (Science translational medicine, 2022).
Values joined by “and” are separate entries in the source; they are usually repeats but may differ in a detail not shown here. Equal entries are not always repeated.

Columns and labels:
[1] = system: PfPI3K; conditions: read-out: IC50 PfPI3K; in vitro; cited from earlier work
[2] = in vitro; conditions: human
[3] = system: P. berghei ANKA GFP-Luc-SMcon sporozoites; assay: P. berghei liver stage assay; type: cell-based; conditions: Plasmodium berghei, HepG2, read-out: IC50, inhibition of parasite invasion of HepG2 liver cells (liver stage)
[4] = system: PfNF54 stage IV/V gametocytes; assay: Late-stage gametocytocidal luciferase reporter assay; type: cell-based; conditions: Plasmodium falciparum, 48 h, read-out: IC50, viability of late-stage gametocytes
[5] = system: PfNF54 stages II/III gametocytes; assay: Early-stage gametocytocidal luciferase reporter assay; type: cell-based; conditions: Plasmodium falciparum, read-out: inhibition of early-stage gametocytes
[6] = system: male gamete formation from stage V gametocytes; assay: Male gamete exflagellation inhibition assay; type: cell-based; conditions: Plasmodium falciparum, 48 h, read-out: inhibition of male gamete formation (EIA)
[7] = system: PfNF54 stage V gametocytes; assay: Standard membrane feeding assay; set-up: species or system Plasmodium falciparum; conditions: 2 μM, stage V gametocytes incubated 48 hours before feeding; mean ±SD
[8] = system: Pf3D7; assay: P. falciparum NSG mouse model of infection, 4-day test; type: in vivo, Plasmodium falciparum; conditions: day 7, single daily oral dose for four days, NSG mice
[9] = Tolerability; type: in vivo; conditions: 10 mg/kg oral once daily, both animals
[10] = Whole-blood pharmacokinetics in NSG mouse efficacy study, LC-MS/MS; type: in vivo, NSG mice
[11] = system: PfNF54 strain; assay: In vitro ABS activity against PfNF54 strain; type: cell-based; conditions: Plasmodium falciparum, read-out: in vitro IC50 against PfNF54 strain
[12] = molecular target: PI4Kβ (PF3D7_0509800) (Plasmodium falciparum, UniProt Q8I406); assay: Kinobead chemoproteomic competition binding, Pf3D7 ABS extract; conditions: read-out: Kd app for PI4Kβ; Kinobeads, P. falciparum ABS extract
Chain of PI4Kβ (PF3D7_0509800) (Q8I406 1-1559): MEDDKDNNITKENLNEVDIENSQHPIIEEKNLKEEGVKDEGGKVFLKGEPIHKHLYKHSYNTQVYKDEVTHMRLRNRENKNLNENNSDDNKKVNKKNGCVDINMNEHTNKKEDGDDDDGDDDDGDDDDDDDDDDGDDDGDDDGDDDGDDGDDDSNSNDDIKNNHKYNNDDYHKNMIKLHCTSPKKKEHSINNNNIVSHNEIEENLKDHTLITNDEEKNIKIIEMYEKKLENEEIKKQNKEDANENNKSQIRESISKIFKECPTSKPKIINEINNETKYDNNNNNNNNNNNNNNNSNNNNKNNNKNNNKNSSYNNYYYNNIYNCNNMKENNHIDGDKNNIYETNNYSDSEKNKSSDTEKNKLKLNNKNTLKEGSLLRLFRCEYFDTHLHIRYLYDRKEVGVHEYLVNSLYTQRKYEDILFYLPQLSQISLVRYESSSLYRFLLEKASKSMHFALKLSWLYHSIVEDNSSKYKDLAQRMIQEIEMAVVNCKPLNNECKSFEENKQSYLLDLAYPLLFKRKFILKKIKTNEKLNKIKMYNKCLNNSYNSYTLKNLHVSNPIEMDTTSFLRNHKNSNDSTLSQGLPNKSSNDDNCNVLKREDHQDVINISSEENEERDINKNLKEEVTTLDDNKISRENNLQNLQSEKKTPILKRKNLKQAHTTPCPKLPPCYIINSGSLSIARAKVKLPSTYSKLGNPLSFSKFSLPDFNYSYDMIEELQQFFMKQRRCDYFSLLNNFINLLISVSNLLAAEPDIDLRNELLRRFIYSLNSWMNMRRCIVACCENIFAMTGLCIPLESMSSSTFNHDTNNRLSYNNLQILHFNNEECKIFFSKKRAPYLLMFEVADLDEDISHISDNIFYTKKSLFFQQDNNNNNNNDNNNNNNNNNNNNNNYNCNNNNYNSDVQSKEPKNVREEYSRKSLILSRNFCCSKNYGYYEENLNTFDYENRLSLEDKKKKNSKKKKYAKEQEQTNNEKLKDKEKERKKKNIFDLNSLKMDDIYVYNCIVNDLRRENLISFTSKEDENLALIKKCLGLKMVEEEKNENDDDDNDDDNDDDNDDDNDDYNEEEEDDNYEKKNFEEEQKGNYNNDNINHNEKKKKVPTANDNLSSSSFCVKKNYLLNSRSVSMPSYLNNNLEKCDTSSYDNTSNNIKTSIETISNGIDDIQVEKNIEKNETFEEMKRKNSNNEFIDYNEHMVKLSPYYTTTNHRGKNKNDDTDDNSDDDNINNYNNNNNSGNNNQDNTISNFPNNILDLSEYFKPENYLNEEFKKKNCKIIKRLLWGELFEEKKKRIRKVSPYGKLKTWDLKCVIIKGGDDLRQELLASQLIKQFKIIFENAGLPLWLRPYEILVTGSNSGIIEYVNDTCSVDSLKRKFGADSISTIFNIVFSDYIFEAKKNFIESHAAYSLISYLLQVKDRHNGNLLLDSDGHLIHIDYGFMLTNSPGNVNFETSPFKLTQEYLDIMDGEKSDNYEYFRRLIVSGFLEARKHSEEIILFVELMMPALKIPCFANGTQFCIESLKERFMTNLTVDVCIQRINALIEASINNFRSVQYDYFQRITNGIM

[13] = molecular target: PI3K (Vps34; PF3D7_0515300) (Plasmodium falciparum, UniProt Q8I3V5); assay: Lipid-Kinobead chemoproteomic competition binding, Pf3D7 ABS extract; conditions: read-out: Kd app for PI3K; Lipid-Kinobeads, N = 1
Chain of PI3K (Vps34; PF3D7_0515300) (Q8I3V5 1-2133): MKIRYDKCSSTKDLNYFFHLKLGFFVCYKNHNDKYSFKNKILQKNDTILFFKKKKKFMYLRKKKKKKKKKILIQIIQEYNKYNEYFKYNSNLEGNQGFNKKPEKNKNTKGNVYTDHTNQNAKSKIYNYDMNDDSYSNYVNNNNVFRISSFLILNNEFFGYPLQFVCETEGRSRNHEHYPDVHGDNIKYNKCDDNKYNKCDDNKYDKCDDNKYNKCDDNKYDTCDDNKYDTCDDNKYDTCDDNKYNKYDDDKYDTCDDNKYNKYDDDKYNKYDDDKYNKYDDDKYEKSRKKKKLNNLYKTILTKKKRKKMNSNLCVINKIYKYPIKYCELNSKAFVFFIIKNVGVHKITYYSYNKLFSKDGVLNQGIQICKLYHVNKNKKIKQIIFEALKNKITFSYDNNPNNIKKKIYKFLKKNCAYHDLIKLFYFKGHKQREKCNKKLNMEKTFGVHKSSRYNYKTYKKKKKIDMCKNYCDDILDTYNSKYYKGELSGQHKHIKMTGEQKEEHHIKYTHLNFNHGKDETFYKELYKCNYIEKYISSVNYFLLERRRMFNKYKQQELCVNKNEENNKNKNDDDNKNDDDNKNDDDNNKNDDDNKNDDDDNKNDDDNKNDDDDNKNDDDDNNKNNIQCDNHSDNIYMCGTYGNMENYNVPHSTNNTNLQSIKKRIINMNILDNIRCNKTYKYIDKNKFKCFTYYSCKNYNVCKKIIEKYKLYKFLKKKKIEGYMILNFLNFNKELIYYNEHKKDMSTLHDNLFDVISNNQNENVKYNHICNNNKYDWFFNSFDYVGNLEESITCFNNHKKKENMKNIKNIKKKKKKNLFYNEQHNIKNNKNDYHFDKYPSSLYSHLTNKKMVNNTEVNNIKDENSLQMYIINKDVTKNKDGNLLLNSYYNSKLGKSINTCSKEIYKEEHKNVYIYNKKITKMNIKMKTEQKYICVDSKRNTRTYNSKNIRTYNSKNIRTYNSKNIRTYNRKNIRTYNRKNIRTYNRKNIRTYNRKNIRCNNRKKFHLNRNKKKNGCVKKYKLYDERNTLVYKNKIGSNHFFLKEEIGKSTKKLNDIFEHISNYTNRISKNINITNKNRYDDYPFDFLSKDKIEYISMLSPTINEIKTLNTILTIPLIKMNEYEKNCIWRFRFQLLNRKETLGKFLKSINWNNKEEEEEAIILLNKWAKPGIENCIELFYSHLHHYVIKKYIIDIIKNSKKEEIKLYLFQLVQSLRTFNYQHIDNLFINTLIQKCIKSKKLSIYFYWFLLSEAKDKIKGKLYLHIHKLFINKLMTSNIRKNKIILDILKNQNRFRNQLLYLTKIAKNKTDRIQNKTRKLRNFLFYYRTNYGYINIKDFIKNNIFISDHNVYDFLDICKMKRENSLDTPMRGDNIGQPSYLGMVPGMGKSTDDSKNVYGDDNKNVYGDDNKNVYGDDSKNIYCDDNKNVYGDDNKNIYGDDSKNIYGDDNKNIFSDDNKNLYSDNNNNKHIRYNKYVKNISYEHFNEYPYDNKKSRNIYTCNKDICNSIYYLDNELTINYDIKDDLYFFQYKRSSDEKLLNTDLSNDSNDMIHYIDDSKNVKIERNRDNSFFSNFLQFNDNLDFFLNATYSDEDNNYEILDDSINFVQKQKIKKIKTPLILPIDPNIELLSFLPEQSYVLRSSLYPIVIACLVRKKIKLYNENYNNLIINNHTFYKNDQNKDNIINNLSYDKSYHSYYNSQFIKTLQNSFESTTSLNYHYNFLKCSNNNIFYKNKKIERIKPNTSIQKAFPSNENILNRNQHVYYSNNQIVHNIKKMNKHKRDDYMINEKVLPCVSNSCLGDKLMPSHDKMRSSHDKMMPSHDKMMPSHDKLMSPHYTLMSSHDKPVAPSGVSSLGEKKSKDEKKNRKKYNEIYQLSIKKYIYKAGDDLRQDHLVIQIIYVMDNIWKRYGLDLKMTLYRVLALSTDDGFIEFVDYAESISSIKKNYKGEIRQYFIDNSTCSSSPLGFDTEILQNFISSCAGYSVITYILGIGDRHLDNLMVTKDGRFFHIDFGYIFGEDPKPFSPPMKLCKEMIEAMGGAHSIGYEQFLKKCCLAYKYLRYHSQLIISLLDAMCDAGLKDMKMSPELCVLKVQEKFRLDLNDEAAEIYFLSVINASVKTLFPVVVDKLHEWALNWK

[14] = molecular target: T1, cdc2-related protein kinase 5 (CRK5; PF3D7_0615500) (Plasmodium falciparum, UniProt C6KSZ6); assay: Kinobead chemoproteomic competition binding, Pf3D7 ABS extract; conditions: read-out: Kd app for CRK5; Kinobeads, P. falciparum ABS extract
T1 sequence (C6KSZ6 1-705): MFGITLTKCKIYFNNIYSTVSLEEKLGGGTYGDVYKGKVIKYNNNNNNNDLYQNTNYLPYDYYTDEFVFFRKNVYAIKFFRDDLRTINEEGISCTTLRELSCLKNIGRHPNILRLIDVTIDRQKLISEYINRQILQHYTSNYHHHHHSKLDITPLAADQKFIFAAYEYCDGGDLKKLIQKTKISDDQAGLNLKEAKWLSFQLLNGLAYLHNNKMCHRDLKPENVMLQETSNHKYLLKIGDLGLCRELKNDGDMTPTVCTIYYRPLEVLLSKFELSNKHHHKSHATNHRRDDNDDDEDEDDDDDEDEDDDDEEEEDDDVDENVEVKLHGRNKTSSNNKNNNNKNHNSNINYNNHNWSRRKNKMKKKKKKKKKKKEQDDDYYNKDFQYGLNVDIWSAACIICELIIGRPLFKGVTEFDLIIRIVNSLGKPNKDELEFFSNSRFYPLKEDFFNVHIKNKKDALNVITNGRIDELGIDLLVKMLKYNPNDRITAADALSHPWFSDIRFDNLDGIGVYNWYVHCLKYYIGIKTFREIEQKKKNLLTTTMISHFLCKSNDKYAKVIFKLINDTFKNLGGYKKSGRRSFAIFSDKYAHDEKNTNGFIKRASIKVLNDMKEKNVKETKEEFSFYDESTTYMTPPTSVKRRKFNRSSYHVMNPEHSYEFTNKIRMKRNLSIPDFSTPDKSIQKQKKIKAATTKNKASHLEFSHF

[15] = molecular target: casein kinase 1 (CK1; PF3D7_1136500) (Plasmodium falciparum, UniProt Q8IHZ9); assay: as above
Chain of casein kinase 1 (CK1; PF3D7_1136500) (Q8IHZ9 whole entry): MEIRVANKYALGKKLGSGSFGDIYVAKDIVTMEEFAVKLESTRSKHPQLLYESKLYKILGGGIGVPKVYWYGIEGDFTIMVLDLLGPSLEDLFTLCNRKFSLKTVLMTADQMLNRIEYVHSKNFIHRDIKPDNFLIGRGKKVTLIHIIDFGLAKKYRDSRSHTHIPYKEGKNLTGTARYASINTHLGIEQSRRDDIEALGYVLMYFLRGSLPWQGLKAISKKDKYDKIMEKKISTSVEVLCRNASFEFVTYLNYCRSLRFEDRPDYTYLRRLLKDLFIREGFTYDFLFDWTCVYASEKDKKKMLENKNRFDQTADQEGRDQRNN

[16] = molecular target: T2, protein kinase 2 (PK2; PF3D7_1238900) (Plasmodium falciparum, UniProt Q8I534); assay: as above; conditions: read-out: Kd app for PK2; Kinobeads, P. falciparum ABS extract
T2 sequence (Q8I534 1-509): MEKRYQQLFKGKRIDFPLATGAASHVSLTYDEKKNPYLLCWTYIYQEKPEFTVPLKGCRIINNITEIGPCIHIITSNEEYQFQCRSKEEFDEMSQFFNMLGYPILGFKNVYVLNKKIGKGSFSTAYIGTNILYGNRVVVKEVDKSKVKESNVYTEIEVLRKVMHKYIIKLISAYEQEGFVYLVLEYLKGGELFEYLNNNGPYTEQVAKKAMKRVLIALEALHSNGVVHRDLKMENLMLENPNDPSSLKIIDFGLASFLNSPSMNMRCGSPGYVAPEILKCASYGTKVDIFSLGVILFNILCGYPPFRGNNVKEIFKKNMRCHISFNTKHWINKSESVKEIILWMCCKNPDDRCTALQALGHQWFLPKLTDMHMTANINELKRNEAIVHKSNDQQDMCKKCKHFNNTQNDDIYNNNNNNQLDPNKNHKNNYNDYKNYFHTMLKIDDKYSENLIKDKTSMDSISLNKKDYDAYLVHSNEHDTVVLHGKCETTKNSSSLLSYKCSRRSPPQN

[17] = system: Pf3D7 trophozoites; assay: Metabolomic perturbation profiling by LC-MS; type: cell-based, Plasmodium falciparum; conditions: 10-fold the IC50 for 2.5 hours, vs no-drug control
[18] = system: PKG (PF3D7_1436600) cKD parasite line; assay: Susceptibility assay with PKG conditional knockdown line; conditions: low aTc (2 nM) vs high aTc
[19] = system: PI3K (PF3D7_0515300) cKD parasite line; assay: Susceptibility assay with PI3K conditional knockdown line; conditions: no aTc vs high aTc
[20] = system: control cell line expressing an aptamer-regulatable fluorescent protein; assay: Susceptibility assay with aptamer-regulatable control line; conditions: low vs high aTc

In the case of `Nc1ccc(-c2ccc3ncc4ccc(=O)n(-c5cccc(C(F)(F)F)c5)c4c3c2)cn1` [Torin-2], the IC50 [1] is listed as 0.6 nM.

In the case of `COc1ccc(C[C@H](N)C(=O)N[C@H]2[C@@H](O)[C@H](n3cnc4c(N(C)C)ncnc43)O[C@@H]2CO)cc1` [Puromycin], the IC50 [2] is reported as 588 ± 3 nM.

`CC(C)n1nc(-c2ccc3oc(N)nc3c2)c2c(N)ncnc21` [sapanisertib] showed an IC50 [3] of 134 nM, an IC50 [4] of 538 nM and an inhibition at 5 µM [5] of 30%. The inhibition at 2 µM [6] was 89%, the “transmission-reducing activity (TRA), reduction in mean oocyst formation” value [7] was 54% and the “ED90 (dose reducing parasitemia by 90% vs untreated control)” value [8] was 0.88 mg/kg. For the same molecule, the “weight loss (humane end point reached before day 7)” value [9] was ≥ 15%, the “whole-blood exposure level (below lowest limit of quantification)” value ([10]; 0.05 mg/kg oral) was < 1 ng/mL and the “whole-blood exposure level (below lowest limit of quantification)” value ([10]; 0.1 mg/kg oral) was < 1 ng/mL. For the same molecule, the IC50 [11] was 58 nM and 0.018 µg/mL, the Kd [12] was ≤ 50 nM and the Kd [13] was ≤ 50 nM and 50 nM. The Kd [14] was < 1000 nM, the Kd [15] was < 1000 nM and the Kd [16] was < 1000 nM. The “effect on hemoglobin-derived peptide levels” value [17] was “disruption and reduction”, the “differential susceptibility on PKG knockdown” value [18] was “did not reveal differential susceptibility” and the “differential susceptibility on PI3K knockdown” value [19] was “did not reveal differential susceptibility”. The “differential susceptibility, aptamer-regulatable control line” value [20] was “did not reveal differential susceptibility”.
